Source: ChEMBL document CHEMBL5512654, “Discovery of novel Thymol-TPP antibiotics that eradicate MRSA persisters” (Eur J Med Chem, 2024)
Values after ≈ are worked out from the molar mass of the structure shown.

How the values were obtained:
Staphylococcus aureus [1] = test: Antibacterial activity against methicillin-resistant Staphylococcus aureus USA 300 assessed as inhibition of bacterial growth measured after 18 hrs by microplate reader; type: functional; conditions: read-out: MIC100
Staphylococcus aureus [2] = test: Antibacterial activity against methicillin-resistant Staphylococcus aureus USA 3390 assessed as inhibition of bacterial growth measured after 18 hrs by microplate reader; type: functional; conditions: read-out: MIC100
Staphylococcus aureus [3] = test: Antibacterial activity against Staphylococcus aureus ATCC 43300 assessed as inhibition of bacterial growth measured after 18 hrs by microplate reader; type: functional; conditions: read-out: MIC100
Acinetobacter baumannii [4] = test: Antibacterial activity against Acinetobacter baumannii ATCC 19606 assessed as inhibition of bacterial growth measured after 18 hrs by microplate reader; type: functional; conditions: read-out: MIC100
Escherichia coli [5] = test: Antibacterial activity against Escherichia coli ATCC 25922 assessed as inhibition of bacterial growth measured after 18 hrs by microplate reader; type: functional; conditions: read-out: MIC100
Escherichia coli [6] = test: Antibacterial activity against Escherichia coli 53328 assessed as inhibition of bacterial growth measured after 18 hrs by microplate reader; type: functional; conditions: read-out: MIC100
Pseudomonas aeruginosa [7] = test: Antibacterial activity against Pseudomonas aeruginosa ATCC 27853 assessed as inhibition of bacterial growth measured after 18 hrs by microplate reader; type: functional; conditions: read-out: MIC100
Klebsiella pneumoniae [8] = test: Antibacterial activity against Klebsiella pneumonia 3026 assessed as inhibition of bacterial growth measured after 18 hrs by microplate reader; type: functional; conditions: read-out: MIC100
Pseudomonas aeruginosa [9] = test: Antibacterial activity against Pseudomonas aeruginosa 535 assessed as inhibition of bacterial growth measured after 18 hrs by microplate reader; type: functional; conditions: read-out: MIC100
Acinetobacter baumannii [10] = test: Antibacterial activity against Acinetobacter baumannii ATCC 1318 assessed as inhibition of bacterial growth measured after 18 hrs by microplate reader; type: functional; conditions: read-out: MIC100
Klebsiella pneumoniae [11] = test: Antibacterial activity against Klebsiella pneumonia ATCC 700603 assessed as inhibition of bacterial growth measured after 18 hrs by microplate reader; type: functional; conditions: read-out: MIC100
[12] = Cytotoxicity against human L02 cells incubated for 72 hrs by MTT dye reduction assay; type: toxicity, cell-based

| SMILES | MIC (Staphylococcus aureus [1]) [µg/mL] | MIC (Staphylococcus aureus [2]) [µg/mL] | MIC (Staphylococcus aureus [3]) [µg/mL] | other results |
| --- | --- | --- | --- | --- |
| COc1ccccc1-c1cc(C(C)C)c(O)cc1C | > 64 | > 64 | > 64 |  |
| Cc1cc(O)c(C(C)C)cc1-c1ccccc1F | 16 (≈ 65.5 µM) | 16 (≈ 65.5 µM) | 8 (≈ 32.7 µM) |  |
| COc1ccc(-c2cc(C(C)C)c(O)cc2C)cc1 | 32 (≈ 125 µM) | 16 (≈ 62.4 µM) | 16 (≈ 62.4 µM) |  |
| Cc1cc(O)c(C(C)C)cc1-c1ccccc1C(=O)O | 8 (≈ 29.6 µM) | 8 (≈ 29.6 µM) | 16 (≈ 59.2 µM) |  |
| Cc1cc(O)c(C(C)C)cc1-c1ccc(O)cc1 | > 64 | > 64 | > 64 |  |
| Cc1cc(O)c(C(C)C)cc1-c1cccc(F)c1 | 16 (≈ 65.5 µM) | 16 (≈ 65.5 µM) | 16 (≈ 65.5 µM) |  |
| Cc1cc(O)c(C(C)C)cc1-c1cccc(O)c1 | 32 (≈ 132 µM) | 32 (≈ 132 µM) | 32 (≈ 132 µM) |  |
| Cc1cc(O)c(C(C)C)cc1-c1ccc(C(F)(F)F)cc1 | 4 (≈ 13.6 µM) | 8 (≈ 27.2 µM) | 4 (≈ 13.6 µM) |  |
| Cc1cccc(-c2cc(C(C)C)c(O)cc2C)c1 | 8 (≈ 33.3 µM) | 8 (≈ 33.3 µM) | 16 (≈ 66.6 µM) |  |
| Cc1cc(O)c(C(C)C)cc1-c1ccccc1C(F)(F)F | 8 (≈ 27.2 µM) | 16 (≈ 54.4 µM) | 8 (≈ 27.2 µM) |  |
| Cc1cc(O)c(C(C)C)cc1Br | 64 (≈ 279 µM) | 32 (≈ 140 µM) | 64 (≈ 279 µM) |  |
| COc1cccc(-c2cc(C(C)C)c(O)cc2C)c1 | 16 (≈ 62.4 µM) | 16 (≈ 62.4 µM) | 16 (≈ 62.4 µM) |  |
| Cc1cc(OC(=O)CCCCCC[P+](c2ccccc2)(c2ccccc2)c2ccccc2)c(C(C)C)cc1-c1ccccc1.[Br-] |  |  |  | MIC (Acinetobacter baumannii [4]): 8 µg/mL; MIC (Escherichia coli [5]): 8 µg/mL; MIC (Escherichia coli [6]): 8 µg/mL; MIC (Pseudomonas aeruginosa [7]): > 64 µg/mL; MIC (Klebsiella pneumoniae [8]): 8 µg/mL; MIC (Pseudomonas aeruginosa [9]): > 64 µg/mL; MIC (Acinetobacter baumannii [10]): 8 µg/mL; MIC (Klebsiella pneumoniae [11]): 8 µg/mL; IC50 at 72 h [12]: 18.8 µg/mL |
| Cc1cc(OC(=O)CCCCCCCCC[P+](c2ccccc2)(c2ccccc2)c2ccccc2)c(C(C)C)cc1-c1ccccc1.[Br-] |  |  |  | MIC (Acinetobacter baumannii [4]): 32 µg/mL; MIC (Escherichia coli [5]): 4 µg/mL; MIC (Escherichia coli [6]): 64 µg/mL; MIC (Pseudomonas aeruginosa [7]): 32 µg/mL; MIC (Klebsiella pneumoniae [8]): > 64 µg/mL; MIC (Pseudomonas aeruginosa [9]): 32 µg/mL; MIC (Acinetobacter baumannii [10]): 16 µg/mL; MIC (Klebsiella pneumoniae [11]): 32 µg/mL; IC50 at 72 h [12]: 8.67 µg/mL |
| Cc1cc(OC(=O)CCCCCCC[P+](c2ccccc2)(c2ccccc2)c2ccccc2)c(C(C)C)cc1-c1ccccc1.[Br-] |  |  |  | MIC (Acinetobacter baumannii [4]): 8 µg/mL; MIC (Escherichia coli [5]): 4 µg/mL; MIC (Escherichia coli [6]): 8 µg/mL; MIC (Pseudomonas aeruginosa [7]): 32 µg/mL; MIC (Klebsiella pneumoniae [8]): 16 µg/mL; MIC (Pseudomonas aeruginosa [9]): 32 µg/mL; MIC (Acinetobacter baumannii [10]): 16 µg/mL; MIC (Klebsiella pneumoniae [11]): 16 µg/mL; IC50 at 72 h [12]: 21.1 µg/mL |
| Cc1cc(O)c(C(C)C)cc1Cl [CHLOROTHYMOL] | 64 (≈ 347 µM) | 64 (≈ 347 µM) | 64 (≈ 347 µM) |  |
| Cc1cc(OC(=O)CCCC[P+](c2ccccc2)(c2ccccc2)c2ccccc2)c(C(C)C)cc1-c1ccccc1.[Br-] |  |  |  | MIC (Acinetobacter baumannii [4]): 16 µg/mL; MIC (Escherichia coli [5]): 16 µg/mL; MIC (Escherichia coli [6]): 8 µg/mL; MIC (Pseudomonas aeruginosa [7]): > 64 µg/mL; MIC (Klebsiella pneumoniae [8]): 32 µg/mL; MIC (Pseudomonas aeruginosa [9]): > 64 µg/mL; MIC (Acinetobacter baumannii [10]): 8 µg/mL; MIC (Klebsiella pneumoniae [11]): 32 µg/mL; IC50 at 72 h [12]: 8.31 µg/mL |

| SMILES | MIC (Staphylococcus aureus [1]) [µg/mL] | MIC (Staphylococcus aureus [2]) [µg/mL] | MIC (Staphylococcus aureus [3]) [µg/mL] | other results |
| --- | --- | --- | --- | --- |
| Cc1cc(O)c(C(C)C)cc1-c1cccc(C#N)c1 | 16 (≈ 63.7 µM) | 8 (≈ 31.8 µM) | 32 (≈ 127 µM) |  |
| Cc1cc(OC(=O)CCC[P+](c2ccccc2)(c2ccccc2)c2ccccc2)c(C(C)C)cc1-c1ccccc1.[Br-] |  |  |  | MIC (Acinetobacter baumannii [4]): 8 µg/mL; MIC (Escherichia coli [5]): 16 µg/mL; MIC (Escherichia coli [6]): 16 µg/mL; MIC (Pseudomonas aeruginosa [7]): 64 µg/mL; MIC (Klebsiella pneumoniae [8]): 32 µg/mL; MIC (Pseudomonas aeruginosa [9]): > 64 µg/mL; MIC (Acinetobacter baumannii [10]): 8 µg/mL; MIC (Klebsiella pneumoniae [11]): 16 µg/mL; IC50 at 72 h [12]: 5.04 µg/mL |
| Cc1cc(O)c(C(C)C)cc1-c1ccc(C(=O)O)cc1 | 16 (≈ 59.2 µM) | 8 (≈ 29.6 µM) | 16 (≈ 59.2 µM) |  |
| Cc1ccc(C(C)C)c(O)c1 [THYMOL] | 128 (≈ 852 µM) | 256 (≈ 1700 µM) | 128 (≈ 852 µM) |  |
| Cc1cc(O)c(C(C)C)cc1-c1ccc(C#N)cc1 | 16 (≈ 63.7 µM) | 32 (≈ 127 µM) | 16 (≈ 63.7 µM) |  |
| Cc1cc(O)c(C(C)C)cc1-c1ccccc1 | 8 (≈ 35.3 µM) | 16 (≈ 70.7 µM) | 16 (≈ 70.7 µM) | IC50 at 72 h [12]: 13.5 µg/mL (≈ 59.5 µM) |
| Cc1cc(O)c(C(C)C)cc1-c1ccncc1 | 128 (≈ 563 µM) | 128 (≈ 563 µM) | 128 (≈ 563 µM) |  |
| Cc1cc(O)c(C(C)C)cc1-c1ccccc1Cl | 8 (≈ 30.7 µM) | 8 (≈ 30.7 µM) | 8 (≈ 30.7 µM) |  |
| Cc1cc(O)c(C(C)C)cc1-c1ccc(Cl)cc1 | 4 (≈ 15.3 µM) | 8 (≈ 30.7 µM) | 8 (≈ 30.7 µM) |  |
| Cc1cc(O)c(C(C)C)cc1-c1ccc(F)cc1 | 16 (≈ 65.5 µM) | 16 (≈ 65.5 µM) | 16 (≈ 65.5 µM) |  |
| Cc1ccccc1-c1cc(C(C)C)c(O)cc1C | 8 (≈ 33.3 µM) | 16 (≈ 66.6 µM) | 8 (≈ 33.3 µM) |  |
| Cc1cc(O)c(C(C)C)cc1-c1cccc(C(F)(F)F)c1 | 4 (≈ 13.6 µM) | 8 (≈ 27.2 µM) | 8 (≈ 27.2 µM) |  |
| Cc1cc(OC(=O)CCCCCCCCCC[P+](c2ccccc2)(c2ccccc2)c2ccccc2)c(C(C)C)cc1-c1ccccc1.[Br-] |  |  |  | MIC (Acinetobacter baumannii [4]): > 64 µg/mL; MIC (Escherichia coli [5]): > 64 µg/mL; MIC (Escherichia coli [6]): 32 µg/mL; MIC (Pseudomonas aeruginosa [7]): 64 µg/mL; MIC (Klebsiella pneumoniae [8]): > 64 µg/mL; MIC (Pseudomonas aeruginosa [9]): > 64 µg/mL; MIC (Acinetobacter baumannii [10]): > 64 µg/mL; MIC (Klebsiella pneumoniae [11]): > 64 µg/mL; IC50 at 72 h [12]: 3.13 µg/mL |
| Cc1cc(O)c(C(C)C)cc1-c1cccc(Cl)c1 | 8 (≈ 30.7 µM) | 8 (≈ 30.7 µM) | 4 (≈ 15.3 µM) |  |
| Cc1ccc(-c2cc(C(C)C)c(O)cc2C)cc1 | 16 (≈ 66.6 µM) | 8 (≈ 33.3 µM) | 8 (≈ 33.3 µM) |  |
| Cc1cc(O)c(C(C)C)cc1-c1cccc(C(=O)O)c1 | 8 (≈ 29.6 µM) | 16 (≈ 59.2 µM) | 8 (≈ 29.6 µM) |  |
| Cc1cc(O)c(C(C)C)cc1-c1ccccc1C#N | 8 (≈ 31.8 µM) | 8 (≈ 31.8 µM) | 16 (≈ 63.7 µM) |  |
